From patent publication US20020115728A1, “Compositions and methods for treating cardiovascular disorders” (priority 2000, published 2002)
Where two headings read alike, the source gives them in different places.

Key:
[1] = Plasma drug level of bisphenol; format: in vivo, mice; details: for concentration at 14 weeks: male, apoE−/−;LDLr−/−, mouse, plasma, oral, 0.03 % (w/w) in chow, mice ranked by plasma drug level
Experimental: Male apoE−/−;LDLr−/− mice (59 total), were maintained on standard R3 chow from weaning to 8 weeks of age (young controls, n=9). Thereafter mice received R3 chow with (n=25) or without supplemented bisphenol (n=25) for an additional 14 weeks. Standard R3-mouse chow was fortified with bisphenol at 0.03% (w/w), a level of supplementation shown in pilot experiments to afford circulating concentrations of the drug of ˜200 μM, considered suitable to test the effect of the co-antioxidant on atherogenesis in this animal model. At 22 weeks of age 10 and 15 mice of each group were used for biochemical and histological analyses, respectively. Due to the small size, it was necessary to pool aortas to yield sufficient material for biochemical analyses.
Analyses of oxidised and non-oxidised lipids were carried out by RP-HPLC as described in Example 1 except that in some instances UV234 nm rather than post-column chemiluminescence detection was used to measure C18:2-OOH and the corresponding hydroxides (together referred to as CE-O(O)H) which show similar retention times under these chromatographic conditions. α-TQ, α-TOH, α-tocotrienol, D-isosascorbate and ascorbate were determined by HPLC with electrochemical detection. For oxidation of plasma, unesterified cholesterol (which remained non-oxidised in these experiments) was employed as internal standard for all polyunsaturated, lipid-soluble components analysed. Bisphenol and diphenoquinone were analysed by RP-HPLC: flow 1.5 mL/min, 100% solvent A (MeCN/MeOH/H20 10:10:3, v/v/v) for 0-15 min monitored at 270 nm, followed by 50% solvent A and B (MeCN/MeOH 1:1, v/v) for 15-22 min at 242 nm and then 100% B for 22-28 min at 420 nm. Bisphenol and diphenoquinone eluted at 9 and 27 min, respectively. All compounds were quantified by peak area comparison with authentic standards. […]
Unless otherwise stated lipid and antioxidant levels are expressed as pmol/mg protein. LH, lipid containing bisallylic hydrogens. §Values are expressed as nmol/mg protein. […]

[2] = system: apoE−/−;LDLr−/− mouse aortae; experiment: Aqueous and lipophilic parameters of aortic homogenates; format: in vivo, mice; details: for Aortic Ascorbate: apoE−/−;LDLr−/− mice
Experimental: Mouse aortas were excised as follows: after bleeding, the heart was perfused with Dulbecco's phosphate-buffered saline containing 100 μM BHT and 1 mM EDTA (maximum pressure 80 mm Hg) through the left ventricle, the right side chamber being opened to allow flow. For histological samples only, the vasculature was subsequently fixed with formal saline. The hearts and entire aortas from all treatment groups were removed and immediately cleaned of fat and connective tissue. Aortas for biochemical analyses were frozen immediately ([…]) without formalin fixation.
Cleaned aortic segments were thawed, blotted, pooled (n=7 or 8), weighed, added to 2 mL of argon-flushed phosphate-buffered saline (to give ˜40 mg wet tissue/mL) containing BHT (100 μM) and EDTA (1 mM). The tissue was minced with scissors, isoascorbate (5 μM) and α-tocotrienol (1 μM) added as internal standards for ascorbate and vitamin E (including α-TQ), respectively, and the samples transferred to a polytetrafluoroethylene-lined glass tube and homogenised at 4° C. for 5 minutes using a teflon piston rotating at 500 r.p.m. For recovery of oxidised lipids, [^3H]-Ch18:2-OH was incorporated into human LDL and added to the vessel prior to homogenisation. […] For ascorbate measurement, raw homogenate (50 μL) was added to metaphosphoric acid (5% v/v, 50 μL) and frozen on dry ice. Immediately before HPLC analysis, the aliquots were thawed and diluted with phosphate buffer (50 μL, 250 mM, pH 7.4), to adjust the pH. For the analyses of lipids, the remaining homogenate (˜1.8 mL) was divided into 4×450 μl aliquots and each extracted with chilled methanol (2 mL) and hexane (10 mL). Hexane phases were combined and evaporated to dryness and the residue resuspended in isopropanol (200 μL).
Analyses of oxidised and non-oxidised lipids were carried out by RP-HPLC as described in Example 1 except that in some instances UV234 nm rather than post-column chemiluminescence detection was used to measure C18:2-OOH and the corresponding hydroxides (together referred to as CE-O(O)H) which show similar retention times under these chromatographic conditions. α-TQ, α-TOH, α-tocotrienol, D-isosascorbate and ascorbate were determined by HPLC with electrochemical detection. For oxidation of plasma, unesterified cholesterol (which remained non-oxidised in these experiments) was employed as internal standard for all polyunsaturated, lipid-soluble components analysed. Bisphenol and diphenoquinone were analysed by RP-HPLC: flow 1.5 mL/min, 100% solvent A (MeCN/MeOH/H20 10:10:3, v/v/v) for 0-15 min monitored at 270 nm, followed by 50% solvent A and B (MeCN/MeOH 1:1, v/v) for 15-22 min at 242 nm and then 100% B for 22-28 min at 420 nm. Bisphenol and diphenoquinone eluted at 9 and 27 min, respectively. All compounds were quantified by peak area comparison with authentic standards. Where indicated, total cholesterol and triglyceride were assayed enzymatically (Boehringer, Mannheim, Germany).
Unless otherwise stated lipid and antioxidant levels are expressed as pmol/mg protein. LH, lipid containing bisallylic hydrogens. §Values are expressed as nmol/mg protein. Protein ranged from 2.4 - 3.3 mg/mL. ¶Value given represents ratio ×10^3. †Mice were ranked in order of plasma concentration of bisphenol, then corresponding aortae were pooled into groups of 7 and 8 on the basis of plasma drug-levels giving two distinct groups. Low and high bisphenol correspond to 106±40 and 212±50 μM, respectively. Control aortas were pooled randomly into two groups of 7 and 8 respectively.

[3] = system: atherosclerosis in apoE−/−;LDLr−/− mice; experiment: Evaluation of atherosclerosis (intima volume, descending thoracic aorta); format: in vivo; details: bisphenol for 14 weeks
Experimental: Aortic lesions were assessed in segments centered around the third pair of intercostal artery branches in the descending thoracic aorta. Briefly, the fixed aortas were dehydrated in ethanol, cleared with xylene and embedded in paraffin. Serial sections (10 in total; each 2-3 μm thick and 100 μm apart) were cut and stained using Weigerts hematoxylin-van Gieson. Aortic thickening was assessed as the total volume of intima in the segment investigated in bisphenol-treated versus control samples.
Aortic volumes were determined by planimetry, using a Lucivid device (MicroBrightField, Colchester, Vermont, […]) attached to a Leitz DRM microscope that allowed the superposition of a computer monitor onto the cross sectional image.

[4] = Probucol and metabolite levels in aorta and plasma; format: in vivo; details: apoE−/− mice, 1% probucol, 24 weeks
Experimental: Male C57BL/6J mice, homozygous for the disrupted apoE gene (apoE−/−) were fed standard chow (Lab-Feed, Sydney, Australia) until aged 10 weeks.
Lipid-soluble antioxidants and lipids were quantified by HPLC as described in FASEB J. 1999;13:667-675. For ascorbate analysis, frozen acidified samples were thawed, diluted with DPBS to adjust the pH to 7.4 and then immediately subjected to HPLC. Plasma triglycerides were determined enzymatically (Boehringer, Mannheim, Germany).
Pooled aortas were snap frozen in liquid nitrogen, pulverised, resuspended in Buffer A, homogenised and then either treated with metaphosphoric acid (for ascorbate) or extracted and the hexane fraction analysed for lipid-soluble antioxidants, cholesterol (C), choleseteryl esters (CE), lipid hydroperoxides (LOOH) and cholesteryl ester hydroxides (CE-OH) by HPLC as described in Methods Enzymol. 1994;233:469-489. LOOH and CE-OH were measured as markers of lipoprotein lipid oxidation, as they are the primary and major oxidation products formed when lipoproteins from apoE−/− mice undergo oxidation. […] All compounds were quantified by peak area comparison with authentic standards, and protein determined.

With `CC(C)(C)c1cc(-c2cc(C(C)(C)C)c(O)c(C(C)(C)C)c2)cc(C(C)(C)C)c1O` [Bisphenol, bisphenol] as the molecule, how does the “circulating concentrations of the drug, pilot experiments” value ([1]; chow fortified with bisphenol at 0.03% (w/w)) read?
Its value is roughly 200 µM.

And the concentration at 14 weeks ([1]; Bisphenol [high] aorta pool, read-out: plasma concentration of bisphenol, high group)?
The concentration at 14 weeks was 212 ± 50 µM.

And the concentration at 14 weeks ([1]; Bisphenol [low] aorta pool, read-out: plasma concentration of bisphenol, low group)?
Its concentration at 14 weeks is 106 ± 40 µM.

And the “Aortic C” value ([2]; Bisphenol [high])?
Its value is 190 nmol/mg protein.

What about the “Aortic C18:2” value ([2]; Bisphenol [high]) of the same molecule?
Its value is 13.3 nmol/mg protein.

And the “Aortic C20:4” value ([2]; Bisphenol [high])?
Its value is 8.5 nmol/mg protein.

What about the “Aortic CE-O(O)H” value ([2]; Bisphenol [high]) of the same molecule?
Its value is 2.8 pmol/mg protein.

What about the “Aortic CE-O(O)H/LH” value ([2]; Bisphenol [high]) of the same molecule?
Its value is 0.002 ratio ×10^3.

And the “Aortic α-TOH” value ([2]; Bisphenol [high])?
The value was 586 pmol/mg protein.

And the “Aortic α-TQ” value ([2]; Bisphenol [high])?
Its value is 3.5 pmol/mg protein.

And the “Aortic Ascorbate” value ([2]; Bisphenol [high] (plasma 212±50 μM))?
Its value is 2570 pmol/mg protein.

And the “Aortic C” value ([2]; Bisphenol [low])?
The value was 204 nmol/mg protein.

What about the “Aortic C18:2” value ([2]; Bisphenol [low]) of the same molecule?
Its value is 21.0 nmol/mg protein.

What about the “Aortic C20:4” value ([2]; Bisphenol [low]) of the same molecule?
The value was 12.7 nmol/mg protein.

And the “Aortic CE-O(O)H” value ([2]; Bisphenol [low])?
The value was 14.1 pmol/mg protein.

And the “Aortic CE-O(O)H/LH” value ([2]; Bisphenol [low])?
Its value is 0.145 ratio ×10^3.

And the “Aortic α-TOH” value ([2]; Bisphenol [low])?
Its value is 669 pmol/mg protein.

What about the “Aortic α-TQ” value ([2]; Bisphenol [low]) of the same molecule?
The value was 4.9 pmol/mg protein.

What about the “Aortic Ascorbate” value ([2]; Bisphenol [low] (plasma 106±40 μM)) of the same molecule?
Its value is 3204 pmol/mg protein.

What about the “level of aortic oxidised lipids lower than control” value ([2]; animals with high plasma levels of bisphenol) of the same molecule?
The value was 1000 fold.

What about the “level of aortic oxidised lipids lower than control” value ([2]; animals with low plasma levels of bisphenol) of the same molecule?
The value was 10 fold.

And the “lesion size (intimal volume, descending thoracic aorta) vs age-matched controls” value [3]?
The value was “substantially decreased”.

For `CC(C)(Sc1cc(C(C)(C)C)c(O)c(C(C)(C)C)c1)Sc1cc(C(C)(C)C)c(O)c(C(C)(C)C)c1` [Probucol, probucol], which “drug metabolised to bisphenol or diphenoquinone, aorta” value ([4]; aorta) is on record?
The value was roughly 11%.

What about the “drug converted into bisphenol or diphenoquinone, plasma” value ([4]; plasma) of the same molecule?
The value was roughly 8%.
